One data set has as its target wild type c-kit (Homo sapiens (Human), UniProt P10721). Kind of data set: PathScan phospho c-kit (Tyr719) sandwich ELISA in SCF-stimulated M-07e cells (pKIT assay). The settings on record: ELISA assay (values not marked *). Format: cell-based. In short, it runs like this: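 Tyr719-phosphorylated c-kit was measured by colorimetric (TMB) sandwich ELISA in lysates of M-07e cells. Cells were starved 4 h without serum or GM-CSF, dosed 60 min at 37 °C with compound (8 points, duplicate, 0.25% DMSO), and stimulated 10 min with human SCF (500 ng/mL as added). IC50 values came from 4-parameter logistic regression.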

Data set [1] deals with human P-glycoprotein (P-gp, MDR1) (Homo sapiens (Human), UniProt P08183). Kind of data set: MDCK-MDR1 cell monolayer drug transport assay (P-gp efflux ratio). The format is in vitro ADME. The note with it: pH 7.4, MDCK-MDR1 cells; for efflux ratio at 2 h, 1 µM: 1 uM concentration of compound, read-out: Pgp Efflux Ratio, 1 uM. In short, it runs like this: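 P-gp substrate potential tested in MDCK-MDR1 monolayers on Transwell supports, cultured 4-8 days; monolayers with TEER <42 ohms·cm2 discarded. Transport run in HBSS (10 mM HEPES, pH 7.4) at 37° C with compound working solution at 1 μM.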
Chain of human P-glycoprotein (P-gp, MDR1) (P08183 whole entry): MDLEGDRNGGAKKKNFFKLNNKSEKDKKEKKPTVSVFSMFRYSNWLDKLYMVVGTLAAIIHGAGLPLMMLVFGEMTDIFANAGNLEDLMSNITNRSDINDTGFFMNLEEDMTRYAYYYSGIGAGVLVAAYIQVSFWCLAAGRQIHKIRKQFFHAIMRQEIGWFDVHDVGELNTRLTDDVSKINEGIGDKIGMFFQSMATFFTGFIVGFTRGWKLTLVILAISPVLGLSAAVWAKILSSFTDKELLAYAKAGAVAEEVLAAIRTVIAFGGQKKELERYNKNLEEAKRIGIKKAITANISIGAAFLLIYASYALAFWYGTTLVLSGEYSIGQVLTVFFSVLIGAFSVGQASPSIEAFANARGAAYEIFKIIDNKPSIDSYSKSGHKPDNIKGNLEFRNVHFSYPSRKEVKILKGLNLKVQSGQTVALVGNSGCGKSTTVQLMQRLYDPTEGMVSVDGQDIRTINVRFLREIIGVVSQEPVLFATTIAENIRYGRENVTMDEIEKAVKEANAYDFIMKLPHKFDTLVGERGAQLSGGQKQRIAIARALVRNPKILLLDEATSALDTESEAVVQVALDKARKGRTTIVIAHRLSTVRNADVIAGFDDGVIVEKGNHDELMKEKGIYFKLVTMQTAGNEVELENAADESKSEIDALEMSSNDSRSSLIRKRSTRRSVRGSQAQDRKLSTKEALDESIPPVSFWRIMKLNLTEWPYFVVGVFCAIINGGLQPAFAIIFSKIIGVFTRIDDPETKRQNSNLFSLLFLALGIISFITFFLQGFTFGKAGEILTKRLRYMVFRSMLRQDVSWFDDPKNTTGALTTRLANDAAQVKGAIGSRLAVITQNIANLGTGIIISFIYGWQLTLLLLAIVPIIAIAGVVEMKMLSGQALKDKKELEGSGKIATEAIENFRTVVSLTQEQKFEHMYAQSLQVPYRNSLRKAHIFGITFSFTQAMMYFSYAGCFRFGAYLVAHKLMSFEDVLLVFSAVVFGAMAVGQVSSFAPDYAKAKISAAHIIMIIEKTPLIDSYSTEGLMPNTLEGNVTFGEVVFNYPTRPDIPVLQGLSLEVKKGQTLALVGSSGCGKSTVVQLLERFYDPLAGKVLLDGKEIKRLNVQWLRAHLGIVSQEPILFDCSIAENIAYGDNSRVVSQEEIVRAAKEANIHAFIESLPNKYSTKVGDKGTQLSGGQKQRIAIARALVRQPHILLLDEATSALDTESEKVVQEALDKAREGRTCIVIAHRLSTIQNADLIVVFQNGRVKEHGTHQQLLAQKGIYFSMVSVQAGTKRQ

Chain of wild type c-kit (P10721 26-976): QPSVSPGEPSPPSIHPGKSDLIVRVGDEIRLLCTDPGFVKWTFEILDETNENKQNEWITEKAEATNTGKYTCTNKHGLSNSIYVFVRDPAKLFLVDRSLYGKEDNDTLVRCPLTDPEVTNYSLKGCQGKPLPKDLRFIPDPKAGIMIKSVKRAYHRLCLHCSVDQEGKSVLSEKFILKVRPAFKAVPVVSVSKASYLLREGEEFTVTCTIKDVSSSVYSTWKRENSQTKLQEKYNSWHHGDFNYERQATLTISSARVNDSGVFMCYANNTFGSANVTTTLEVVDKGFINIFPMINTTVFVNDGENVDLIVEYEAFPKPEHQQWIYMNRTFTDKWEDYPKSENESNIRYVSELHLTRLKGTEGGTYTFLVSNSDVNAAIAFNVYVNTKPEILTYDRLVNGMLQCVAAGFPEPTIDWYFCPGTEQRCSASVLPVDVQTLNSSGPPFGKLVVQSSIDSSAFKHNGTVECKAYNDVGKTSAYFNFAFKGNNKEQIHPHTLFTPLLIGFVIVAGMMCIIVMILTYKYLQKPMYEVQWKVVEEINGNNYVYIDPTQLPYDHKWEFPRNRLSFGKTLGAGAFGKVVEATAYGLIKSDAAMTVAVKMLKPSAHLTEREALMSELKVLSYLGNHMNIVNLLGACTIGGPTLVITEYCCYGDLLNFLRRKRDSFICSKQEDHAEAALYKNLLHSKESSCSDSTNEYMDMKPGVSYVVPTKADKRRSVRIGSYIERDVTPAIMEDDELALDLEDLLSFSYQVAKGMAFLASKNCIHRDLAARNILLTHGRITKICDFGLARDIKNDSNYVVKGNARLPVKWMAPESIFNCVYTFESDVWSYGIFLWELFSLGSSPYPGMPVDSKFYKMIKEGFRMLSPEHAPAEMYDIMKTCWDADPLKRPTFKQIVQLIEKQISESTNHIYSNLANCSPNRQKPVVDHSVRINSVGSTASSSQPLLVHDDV

Turning to `COC[C@@H](O)Cn1ncc(-c2ccn3ncc(C(=O)Nc4cc(-c5nnn(C6CC6)n5)ccc4Cl)c3c2)c1C` [Example 248, (S)-N-(2-chloro-5-(2-cyclopropyl-2H-tetrazol-5-yl)phenyl)-5-(1-(2-hydroxy-3-methoxypropyl)-5-methyl-1H-pyrazol-4-yl)pyrazolo[1,5-a]pyridine-3-carboxamide], at wild type c-kit, the half-maximal inhibitory concentration (IC50) (in general, the concentration that inhibits the measured activity by half) was 0.6 nM. For the same molecule, the efflux ratio at 2 h, 1 µM in data set [1] was found to be 3.5.

Regarding `Cc1cc(F)c(-c2nnn(C3CC3)n2)cc1NC(=O)c1cnn2ccc(-c3cn(CC(C)(C)O)nc3C3CC3)cc12` [Example 241, 5-(3-cyclopropyl-1-(2-hydroxy-2-methylpropyl)-1H-pyrazol-4-yl)-N-(5-(2-cyclopropyl-2H-tetrazol-5-yl)-4-fluoro-2-methylphenyl)pyrazolo[1,5-a]pyridine-3-carboxamide], the IC50 against wild type c-kit amounted to 0.2 nM. For the same molecule, in data set [1] (0.1 uM concentration of compound (denoted by **), read-out: Pgp Efflux Ratio), the efflux ratio at 2 h, 0.1 µM stood at 6.3.

On to `Cc1ccc(-c2nnn(C)n2)cc1NC(=O)c1cnn2ccc(-c3cnn(C[C@H](C)O)c3)cc12` (single isomer, unassigned) [Example 54, (S)-5-(1-(2-hydroxypropyl)-1H-pyrazol-4-yl)-N-(2-methyl-5-(2-methyl-2H-tetrazol-5-yl)phenyl)pyrazolo[1,5-a]pyridine-3-carboxamide or (R)-5-(1-(2-hydroxypropyl)-1H-pyrazol-4-yl)-N-(2-methyl-5-(2-methyl-2H-tetrazol-5-yl)phenyl)pyrazolo[1,5-a]pyridine-3-carboxamide], for which, at wild type c-kit, the half-inhibitory concentration (IC50) stood at 1.4 nM. Besides, in data set [1], the efflux ratio at 2 h, 1 µM was 8.4.

As to `Cc1cnn(-c2ccc(C)c(NC(=O)c3cnn4ccc(-c5cnn(CCO)c5)cc34)c2)n1` [Example 57, 5-(1-(2-hydroxyethyl)-1H-pyrazol-4-yl)-N-(2-methyl-5-(4-methyl-2H-1,2,3-triazol-2-yl)phenyl)pyrazolo[1,5-a]pyridine-3-carboxamide], 4 nM corresponded to half-maximal inhibition against wild type c-kit (IC50). Besides, the efflux ratio at 2 h, 1 µM in data set [1] came out at 3.4.

The molecule `Cc1cc(C#N)c(-c2nnn(C3CC(F)(F)C3)n2)cc1NC(=O)c1cnn2ccc(N3CCOCC3)cc12` [Example 165, N-(4-cyano-5-(2-(3,3-difluorocyclobutyl)-2H-tetrazol-5-yl)-2-methylphenyl)-5-morpholinopyrazolo[1,5-a]pyridine-3-carboxamide] showed an IC50 against wild type c-kit of 26.6 nM. The efflux ratio at 2 h, 1 µM in data set [1] was found to be 6.6.

Regarding `COC[C@@H](O)Cn1nc(C)c(-c2ccn3ncc(C(=O)Nc4cc(-c5nnn(C)n5)ccc4C)c3c2)c1C` [Example 245, (S)-5-(1-(2-hydroxy-3-methoxypropyl)-3,5-dimethyl-1H-pyrazol-4-yl)-N-(2-methyl-5-(2-methyl-2H-tetrazol-5-yl)phenyl)pyrazolo[1,5-a]pyridine-3-carboxamide], at wild type c-kit, the IC50 is 0.8 nM. In addition, the efflux ratio at 2 h, 1 µM in data set [1] turned out to be 2.3.

The molecule `Cc1cnn(-c2ccc(C)c(NC(=O)c3cnn4ccc(-c5cnn(C[C@@H]6CNCCO6)c5)cc34)c2)n1` [Example 204, (S)—N-(2-methyl-5-(4-methyl-2H-1,2,3-triazol-2-yl)phenyl)-5-(1-(morpholin-2-ylmethyl)-1H-pyrazol-4-yl)pyrazolo[1,5-a]pyridine-3-carboxamide] registered an IC50 against wild type c-kit of 10.1 nM. For the same molecule, the efflux ratio at 2 h, 1 µM in data set [1] turned out to be 62.1.

Turning to `Cc1ccc(-c2nnn(C3CN(S(C)(=O)=O)C3)n2)cc1NC(=O)c1cnn2ccccc12` [Example 172, N-(2-methyl-5-(2-(1-(methylsulfonyl)azetidin-3-yl)-2H-tetrazol-5-yl)phenyl)pyrazolo[1,5-a]pyridine-3-carboxamide], on wild type c-kit, the IC50 is 35.4 nM. In data set [1], the efflux ratio at 2 h, 1 µM is 5.5.

Turning to `Cc1ccc(-c2nnn(C3CC3)n2)cc1NC(=O)c1cnn2ccc(-c3cnn(CC4(O)CCOCC4)c3)cc12` [Example 206, N-(5-(2-cyclopropyl-2H-tetrazol-5-yl)-2-methylphenyl)-5-(1-((4-hydroxytetrahydro-2H-pyran-4-yl)methyl)-1H-pyrazol-4-yl)pyrazolo[1,5-a]pyridine-3-carboxamide], 1.2 nM corresponded to half-maximal inhibition against wild type c-kit (IC50). For the same molecule, in data set [1], the efflux ratio at 2 h, 1 µM came out at 22.6.

In turn, `COC[C@@H](O)Cn1cc(-c2ccn3ncc(C(=O)Nc4cc(-c5nnn(C6CC6)n5)c(F)cc4C)c3c2)c(C2CC2)n1` [Example 257, (S)-5-(3-cyclopropyl-1-(2-hydroxy-3-methoxypropyl)-1H-pyrazol-4-yl)-N-(5-(2-cyclopropyl-2H-tetrazol-5-yl)-4-fluoro-2-methylphenyl)pyrazolo[1,5-a]pyridine-3-carboxamide] returned an IC50 against wild type c-kit of 0.7 nM. Besides, the efflux ratio at 2 h, 1 µM in data set [1] came out at 8.9.

On wild type c-kit, `O=C(Nc1cc(-n2nnc([C@H]3C[C@@H]3F)n2)ccc1Cl)c1cnn2ccc(-c3cnn(CC4(O)CCOCC4)c3)cc12` (single isomer, unassigned) [Example 271, N-(2-chloro-5-(5-((1R,2S)-2-fluorocyclopropyl)-2H-tetrazol-2-yl)phenyl)-5-(1-((4-hydroxytetrahydro-2H-pyran-4-yl)methyl)-1H-pyrazol-4-yl)pyrazolo[1,5-a]pyridine-3-carboxamide or N-(2-chloro-5-(5-((1S,2R)-2-fluorocyclopropyl)-2H-tetrazol-2-yl)phenyl)-5-(1-((4-hydroxytetrahydro-2H-pyran-4-yl)methyl)-1H-pyrazol-4-yl)pyrazolo[1,5-a]pyridine-3-carboxamide] registered an IC50 of 0.3 nM. For the same molecule, in data set [1], the efflux ratio at 2 h, 1 µM was 2.2.

In turn, `COC(=O)N1CC(c2cnn(-c3ccc(C)c(NC(=O)c4cnn5ccc(NCC(F)F)cc45)c3)n2)C1` [Example 139, methyl 3-(2-(3-(5-((2,2-difluoroethyl)amino)pyrazolo[1,5-a]pyridine-3-carboxamido)-4-methylphenyl)-2H-1,2,3-triazol-4-yl)azetidine-1-carboxylate] had a 50% inhibitory concentration (IC50) against wild type c-kit of 26.3 nM. The efflux ratio at 2 h, 1 µM in data set [1] worked out at 18.9.

Take `Cc1nnn(-c2ccc(C)c(NC(=O)c3cnn4ccc(-c5cn(C[C@H]6CNCCO6)nc5C)cc34)c2)n1` [Example 230, (R)-5-(3-methyl-1-(morpholin-2-ylmethyl)-1H-pyrazol-4-yl)-N-(2-methyl-5-(5-methyl-2H-tetrazol-2-yl)phenyl)pyrazolo[1,5-a]pyridine-3-carboxamide]: the IC50 on wild type c-kit was found to be 0.8 nM. The efflux ratio at 2 h, 1 µM in data set [1] stood at 116.

Molecule `Cc1cc(F)c(-c2nnn([C@H]3C[C@@H](C(F)(F)F)C3)n2)cc1NC(=O)c1cnn2ccc(N3CCC(C)(O)CC3)cc12` [Example 109, N-(4-fluoro-2-methyl-5-(2-((1s,3s)-3-(trifluoromethyl)cyclobutyl)-2H-tetrazol-5-yl)phenyl)-5-(4-hydroxy-4-methylpiperidin-1-yl)pyrazolo[1,5-a]pyridine-3-carboxamide] registered an IC50 against wild type c-kit of 4.9 nM. In addition, the efflux ratio at 2 h, 1 µM in data set [1] is 15.4.

`Cc1cc(Cl)c(-c2nnn(C3CC(F)(F)C3)n2)cc1NC(=O)c1cnn2ccc(N3CCOCC3)cc12` [Example 168, N-(4-chloro-5-(2-(3,3-difluorocyclobutyl)-2H-tetrazol-5-yl)-2-methylphenyl)-5-morpholinopyrazolo[1,5-a]pyridine-3-carboxamide] registered a concentration for half-maximal inhibition (IC50) on wild type c-kit of 9.2 nM. Further, the efflux ratio at 2 h, 1 µM in data set [1] was determined as 3.2.

Take `COC[C@@H](O)Cn1cc(-c2ccn3ncc(C(=O)Nc4cc(-c5nnn(C6CC6)n5)c(C)cc4Cl)c3c2)cn1` [Example 252, (S)-N-(2-chloro-5-(2-cyclopropyl-2H-tetrazol-5-yl)-4-methylphenyl)-5-(1-(2-hydroxy-3-methoxypropyl)-1H-pyrazol-4-yl)pyrazolo[1,5-a]pyridine-3-carboxamide]: on wild type c-kit, 3.7 nM corresponded to half-maximal inhibition (IC50). The efflux ratio at 2 h, 1 µM in data set [1] worked out at 5.1.

For `COC(=O)N1CC(n2nnc(-c3ccc(C)c(NC(=O)c4cnn5ccc(COCC(F)F)cc45)c3)n2)C1` [Example 162, methyl 3-(5-(3-(5-((2,2-difluoroethoxy)methyl)pyrazolo[1,5-a]pyridine-3-carboxamido)-4-methylphenyl)-2H-tetrazol-2-yl)azetidine-1-carboxylate], the IC50 against wild type c-kit is 18 nM. The efflux ratio at 2 h, 1 µM in data set [1] came to 5.3.

For `COCCNc1ccc2c(C(=O)Nc3cc(-c4nnn(C5CN(C(=O)OC)C5)n4)ccc3Cl)cnn2c1` [Example 157, methyl 3-(5-(4-chloro-3-(6-((2-methoxyethyl)amino)pyrazolo[1,5-a]pyridine-3-carboxamido)phenyl)-2H-tetrazol-2-yl)azetidine-1-carboxylate], on wild type c-kit, the 50% inhibitory concentration (IC50) was 6.4 nM. Besides, in data set [1], the efflux ratio at 2 h, 1 µM turned out to be 5.9.

For `COCCNc1ccn2ncc(C(=O)Nc3cc(-n4ncc(C5CN(C(=O)OC)C5)n4)ccc3C)c2c1` [Example 110, methyl 3-(2-(3-(5-((2-methoxyethyl)amino)pyrazolo[1,5-a]pyridine-3-carboxamido)-4-methylphenyl)-2H-1,2,3-triazol-4-yl)azetidine-1-carboxylate], the IC50 on wild type c-kit worked out at 17.7 nM. Also, the efflux ratio at 2 h, 1 µM in data set [1] is 8.7.

For `COCCCc1ccn2ncc(C(=O)Nc3cc(-c4nnn(C5CN(C(=O)OC)C5)n4)ccc3C)c2c1` [Example 58, methyl 3-(5-(3-(5-(3-methoxypropyl)pyrazolo[1,5-a]pyridine-3-carboxamido)-4-methylphenyl)-2H-tetrazol-2-yl)azetidine-1-carboxylate], at wild type c-kit, the IC50 was found to be 126 nM. Further, the efflux ratio at 2 h, 1 µM in data set [1] worked out at 4.1.

As for `COC(=O)N1CC(n2nnc(-c3ccc(C)c(NC(=O)c4cnn5ccc(NC[C@H](C)O)cc45)c3)n2)C1` [Example 94, methyl (S)-3-(5-(3-(5-((2-hydroxypropyl)amino)pyrazolo[1,5-a]pyridine-3-carboxamido)-4-methylphenyl)-2H-tetrazol-2-yl)azetidine-1-carboxylate], on wild type c-kit, half-maximal inhibition (IC50) was put at 131 nM. For the same molecule, the efflux ratio at 2 h, 1 µM in data set [1] came to 22.3.

(Values after patent US20240262826A1, “WILD TYPE KIT INHIBITORS” (Blueprint Medicines Corporation, priority 2022, published 2024).)
